From patent publication US10405547B2, “Substituted cyclic amides as herbicides” (FMC Corporation, priority 2015, dated 2019)

Columns and labels:
Format in all cases: in vivo
[1] = tested on: pigweed (Amaranthus retroflexus); experiment: Test A preemergence, pigweed; conditions: 0 to 100 scale (0 no effect, 100 complete control)
In short: (§1)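 Visual injury scores (0 no effect to 100 complete control) taken about 10 days after treatment, relative to untreated plants. Treatments were directed soil spray at planting for preemergence, or foliar application to one- to two-leaf plants (2-10 cm) for postemergence, with surfactant-containing formulations in loam–sand pots.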

[2] = tested on: barnyardgrass (Echinochloa crus-galli); experiment: Test B flooded paddy test, barnyardgrass; conditions: 250 g ai/ha, applied to paddy water, visual rating after 13 to 15 days, scale 0 (no effect) to 100 (complete control)
Source text: (§2) At time of treatment, test pots were flooded to 3 cm above the soil surface, treated by application of test compounds directly to the paddy water, and then maintained at that water depth for the duration of the test. Treated plants and controls were maintained in a greenhouse for 13 to 15 days, after which time all species were compared to controls and visually evaluated. […] A dash (-) response means no test result.

[3] = tested on: galium (catchweed bedstraw, Galium aparine); experiment: Test A postemergence, galium; conditions: visual injury, 0 to 100 scale (0 no effect, 100 complete control), approximately 10 days
In short: as §1

[4] = tested on: barnyardgrass (Echinochloa crus-galli); experiment: Test A postemergence, barnyardgrass; conditions: visual injury, 0 to 100 scale (0 no effect, 100 complete control), approximately 10 days
In short: as §1

[5] = tested on: ryegrass, Italian (Lolium multiflorum); experiment: Test A preemergence, Italian ryegrass; conditions: 0 to 100 scale (0 no effect, 100 complete control)
In short: as §1

[6] = tested on: corn (Zea mays); experiment: Test A postemergence, corn; conditions: visual injury, 0 to 100 scale (0 no effect, 100 complete control), approximately 10 days
In short: as §1

[7] = tested on: rice (Oryza sativa); experiment: Test B flooded paddy test, rice; conditions: 250 g ai/ha, applied to paddy water, visual rating after 13 to 15 days, scale 0 (no effect) to 100 (complete control)
Source text: as §2

[8] = tested on: wheat (Triticum aestivum); experiment: Test A postemergence, wheat; conditions: visual injury, 0 to 100 scale (0 no effect, 100 complete control), approximately 10 days
In short: as §1

[9] = tested on: foxtail, giant (Setaria faberii); experiment: Test A postemergence, giant foxtail; conditions: visual injury, 0 to 100 scale (0 no effect, 100 complete control), approximately 10 days
In short: as §1

[10] = tested on: blackgrass (Alopecurus myosuroides); experiment: Test A postemergence, blackgrass; conditions: visual injury, 0 to 100 scale (0 no effect, 100 complete control), approximately 10 days
In short: as §1

[11] = tested on: ragweed (common ragweed, Ambrosia elatior); experiment: Test A preemergence, ragweed; conditions: 0 to 100 scale (0 no effect, 100 complete control)
In short: as §1

[12] = tested on: barnyardgrass (Echinochloa crus-galli); experiment: Test A preemergence, barnyardgrass; conditions: 0 to 100 scale (0 no effect, 100 complete control)
In short: as §1

[13] = tested on: sedge, umbrella (small-flower umbrella sedge, Cyperus difformis); experiment: Test B flooded paddy test, umbrella sedge; conditions: 250 g ai/ha, applied to paddy water, visual rating after 13 to 15 days, scale 0 (no effect) to 100 (complete control)
Source text: as §2

[14] = tested on: ducksalad (Heteranthera limosa); experiment: Test B flooded paddy test, ducksalad; conditions: 250 g ai/ha, applied to paddy water, visual rating after 13 to 15 days, scale 0 (no effect) to 100 (complete control)
Source text: as §2

[15] = tested on: foxtail, giant (Setaria faberii); experiment: Test A preemergence, giant foxtail; conditions: 0 to 100 scale (0 no effect, 100 complete control)
In short: as §1

[16] = tested on: ryegrass, Italian (Lolium multiflorum); experiment: Test A postemergence, Italian ryegrass; conditions: visual injury, 0 to 100 scale (0 no effect, 100 complete control), approximately 10 days
In short: as §1

[17] = tested on: kochia (Kochia scoparia); experiment: Test A preemergence, kochia; conditions: 0 to 100 scale (0 no effect, 100 complete control)
In short: as §1

[18] = tested on: pigweed (Amaranthus retroflexus); experiment: Test A postemergence, pigweed; conditions: visual injury, 0 to 100 scale (0 no effect, 100 complete control), approximately 10 days
In short: as §1

[19] = tested on: ragweed (common ragweed, Ambrosia elatior); experiment: Test A postemergence, ragweed; conditions: visual injury, 0 to 100 scale (0 no effect, 100 complete control), approximately 10 days
In short: as §1

## CN1CC(c2cccc(Sc3ccccc3)c2)C(C(=O)Nc2ccccc2F)C1=O (single isomer, unassigned) [Compound 50]
[1]; 125 g ai/ha
  Plant response rating, Pigweed: 20
[1]; 500 g ai/ha
  Plant response rating, Pigweed: 20
[2]
  Plant response rating, Barnyardgrass (Flood): 0
[3]; 125 g ai/ha
  Plant response rating, Galium: 0
[3]; 500 g ai/ha
  Plant response rating, Galium: 40
[4]; 125 g ai/ha
  Plant response rating, Barnyardgrass: 0
[4]; 500 g ai/ha
  Plant response rating, Barnyardgrass: 30
[5]; 125 g ai/ha
  Plant response rating, Ryegrass, Italian: 0
[5]; 500 g ai/ha
  Plant response rating, Ryegrass, Italian: 0
[6]; 125 g ai/ha
  Plant response rating, Corn: 0
[6]; 500 g ai/ha
  Plant response rating, Corn: 20
[7]
  Plant response rating, Rice (Flood): 0
[8]; 125 g ai/ha
  Plant response rating, Wheat: 0
[8]; 500 g ai/ha
  Plant response rating, Wheat: 0
[9]; 125 g ai/ha
  Plant response rating, Foxtail, Giant: 50
[9]; 500 g ai/ha
  Plant response rating, Foxtail, Giant: 70
[10]; 125 g ai/ha
  Plant response rating, Blackgrass: 0
[10]; 500 g ai/ha
  Plant response rating, Blackgrass: 0
[11]; 125 g ai/ha
  Plant response rating, Ragweed: 0
[11]; 500 g ai/ha
  Plant response rating, Ragweed: 30
[12]; 125 g ai/ha
  Plant response rating, Barnyardgrass: 0
[12]; 500 g ai/ha
  Plant response rating, Barnyardgrass: 40
[13]
  Plant response rating, Sedge, Umbrella (Flood): 0
[14]
  Plant response rating, Ducksalad (Flood): 70
[15]; 125 g ai/ha
  Plant response rating, Foxtail, Giant: 90
[15]; 500 g ai/ha
  Plant response rating, Foxtail, Giant: 90
[16]; 125 g ai/ha
  Plant response rating, Ryegrass, Italian: 0
[16]; 500 g ai/ha
  Plant response rating, Ryegrass, Italian: 0
[17]; 125 g ai/ha
  Plant response rating, Kochia: 0
[17]; 500 g ai/ha
  Plant response rating, Kochia: 30
[18]; 125 g ai/ha
  Plant response rating, Pigweed: 0
[18]; 500 g ai/ha
  Plant response rating, Pigweed: 30
[19]; 125 g ai/ha
  Plant response rating, Ragweed: 0
[19]; 500 g ai/ha
  Plant response rating, Ragweed: 0

## CN1CC(c2cccc(Oc3ccc(F)cn3)c2)C(C(=O)Nc2ccccc2F)C1=O (single isomer, unassigned) [Compound 60]
[1]; 125 g ai/ha
  Plant response rating, Pigweed: 60
[1]; 500 g ai/ha
  Plant response rating, Pigweed: 50
[2]
  Plant response rating, Barnyardgrass (Flood): 65
[3]; 125 g ai/ha
  Plant response rating, Galium: 30
[3]; 500 g ai/ha
  Plant response rating, Galium: 60
[4]; 125 g ai/ha
  Plant response rating, Barnyardgrass: 70
[4]; 500 g ai/ha
  Plant response rating, Barnyardgrass: 90
[5]; 125 g ai/ha
  Plant response rating, Ryegrass, Italian: 20
[5]; 500 g ai/ha
  Plant response rating, Ryegrass, Italian: 70
[6]; 125 g ai/ha
  Plant response rating, Corn: 30
[6]; 500 g ai/ha
  Plant response rating, Corn: 50
[7]
  Plant response rating, Rice (Flood): 0
[8]; 125 g ai/ha
  Plant response rating, Wheat: 0
[8]; 500 g ai/ha
  Plant response rating, Wheat: 70
[9]; 125 g ai/ha
  Plant response rating, Foxtail, Giant: 80
[9]; 500 g ai/ha
  Plant response rating, Foxtail, Giant: 90
[10]; 125 g ai/ha
  Plant response rating, Blackgrass: 0
[10]; 500 g ai/ha
  Plant response rating, Blackgrass: 30
[11]; 125 g ai/ha
  Plant response rating, Ragweed: 40
[11]; 500 g ai/ha
  Plant response rating, Ragweed: 50
[12]; 125 g ai/ha
  Plant response rating, Barnyardgrass: 90
[12]; 500 g ai/ha
  Plant response rating, Barnyardgrass: 90
[13]
  Plant response rating, Sedge, Umbrella (Flood): 0
[14]
  Plant response rating, Ducksalad (Flood): 100
[15]; 125 g ai/ha
  Plant response rating, Foxtail, Giant: 90
[15]; 500 g ai/ha
  Plant response rating, Foxtail, Giant: 90
[16]; 125 g ai/ha
  Plant response rating, Ryegrass, Italian: 30
[16]; 500 g ai/ha
  Plant response rating, Ryegrass, Italian: 50
[17]; 125 g ai/ha
  Plant response rating, Kochia: 70
[17]; 500 g ai/ha
  Plant response rating, Kochia: 80
[18]; 125 g ai/ha
  Plant response rating, Pigweed: 0
[18]; 500 g ai/ha
  Plant response rating, Pigweed: 40
[19]; 125 g ai/ha
  Plant response rating, Ragweed: 0
[19]; 500 g ai/ha
  Plant response rating, Ragweed: 40

## O=C1NCC(c2cccc(Oc3ccc(C(F)(F)F)cn3)c2)C1C(=O)Nc1ccccc1F (single isomer, unassigned) [Compound 62]
[1]; 125 g ai/ha
  Plant response rating, Pigweed: 30
[1]; 500 g ai/ha
  Plant response rating, Pigweed: 50
[2]
  Plant response rating, Barnyardgrass (Flood): 40
[3]; 125 g ai/ha
  Plant response rating, Galium: 30
[3]; 500 g ai/ha
  Plant response rating, Galium: 60
[4]; 125 g ai/ha
  Plant response rating, Barnyardgrass: 70
[4]; 500 g ai/ha
  Plant response rating, Barnyardgrass: 90
[5]; 125 g ai/ha
  Plant response rating, Ryegrass, Italian: 0
[5]; 500 g ai/ha
  Plant response rating, Ryegrass, Italian: 20
[6]; 125 g ai/ha
  Plant response rating, Corn: 30
[6]; 500 g ai/ha
  Plant response rating, Corn: 30
[7]
  Plant response rating, Rice (Flood): 20
[8]; 125 g ai/ha
  Plant response rating, Wheat: 0
[8]; 500 g ai/ha
  Plant response rating, Wheat: 30
[9]; 125 g ai/ha
  Plant response rating, Foxtail, Giant: 80
[9]; 500 g ai/ha
  Plant response rating, Foxtail, Giant: 90
[10]; 125 g ai/ha
  Plant response rating, Blackgrass: 0
[10]; 500 g ai/ha
  Plant response rating, Blackgrass: 30
[11]; 125 g ai/ha
  Plant response rating, Ragweed: 0
[11]; 500 g ai/ha
  Plant response rating, Ragweed: 50
[12]; 125 g ai/ha
  Plant response rating, Barnyardgrass: 90
[12]; 500 g ai/ha
  Plant response rating, Barnyardgrass: 90
[13]
  Plant response rating, Sedge, Umbrella (Flood): 0
[14]
  Plant response rating, Ducksalad (Flood): 100
[15]; 125 g ai/ha
  Plant response rating, Foxtail, Giant: 90
[15]; 500 g ai/ha
  Plant response rating, Foxtail, Giant: 90
[16]; 125 g ai/ha
  Plant response rating, Ryegrass, Italian: 0
[16]; 500 g ai/ha
  Plant response rating, Ryegrass, Italian: 30
[17]; 125 g ai/ha
  Plant response rating, Kochia: 30
[17]; 500 g ai/ha
  Plant response rating, Kochia: 60
[18]; 125 g ai/ha
  Plant response rating, Pigweed: 0
[18]; 500 g ai/ha
  Plant response rating, Pigweed: 30
[19]; 125 g ai/ha
  Plant response rating, Ragweed: 0
[19]; 500 g ai/ha
  Plant response rating, Ragweed: 40
